Assay results published in patent publication US9150887B2, “Ethanologenic bacteria with increased resistance to furfural” (UNIVERSITY OF FLORIDA RESEARCH FOUNDATION, INC., priority 2009, dated 2015).
Values after ≈ are worked out from the molar mass of the structure shown. “Also recorded” adds a separate entry of the source. Read-outs that look alike come from different tables or passages of the source.

Key:
EMFR9 [1] = experiment: Furfural toxicity (MIC) in tube cultures; format: cell-based, Escherichia coli; conditions: for MIC: other compounds of hemicellulose hydrolysates, data not shown
Procedure: (§1) Cultures were inoculated to an initial density of 17 mg dcw liter^−1. Cell mass was measured after incubation at 37° C. for 24 h and 48 h.

LY180 [2] = experiment: Furfural toxicity (MIC) in tube cultures; format: cell-based, Escherichia coli; conditions: for MIC: other compounds of hemicellulose hydrolysates, data not shown
Procedure: as §1

LY180 [3] = experiment: 5-HMF tolerance in tube cultures with cysteine supplement; format: cell-based, Escherichia coli
Procedure: Tolerance to 5-HMF was tested using 13×100 mm closed tubes containing 4 ml AM1 and 5-HMF as indicated. When appropriate, antibiotics were included for plasmid maintenance. Tubes were inoculated to an initial density of 0.05 OD550 nm. […] To examine the effects of pntAB on furan tolerance, a multiwall plate containing 400 μl of AM1 (and 5-HMF or furfural) per well was inoculated as above. OD(420-580 nm bandwidth) was measured for 72 h using a Bioscreen C growth analyzer (Oy Growth Curves, Helsinki, Finland).

DkgA [4] = biological target: T1, DkgA (Escherichia coli, UniProt Q46857); experiment: Kinetic analysis of purified His-tagged DkgA; format: biochemical; conditions: purified enzyme, with furfural; read-out: apparent Km for NADPH
T1 construct: For-[…]; His-tag (N); made in house; host or cells: E. coli BL21 (DE3)
Procedure: Both the yqhD and dkgA genes were cloned into a Novagen pET-15b vector and expressed as a His-tagged protein in E. coli BL21 (DE3). Cells were grown with IPTG to approximately 1.3 g dcw liter^−1, washed with 100 mM phosphate buffer, and lysed using MP Fast Prep-24 (MP Biomedical, Solon Ohio) and Lysing Matrix B. Crude extracts were passed through a 0.22 μm PVDF filter and further purified using a 1 mL HiTrap nickel column. Purified enzymes were dialyzed in 100 mM phosphate buffer using a Thermo Slide-A-Lyser and quantified using a Thermo BCA Protein Assay Kit. Purity of YqhD and DkgA were estimated to be greater than 90% by SDS-PAGE. […] Estimated sizes of the purified proteins were in agreement with predicted values of 43 kD and 31 kD, respectively. Apparent Kcat and apparent Km values were determined for both purified enzymes using NADPH and furfural.

DkgA [5] = biological target: T1, DkgA; conditions: Miller et al. 2009b; read-out: apparent Km for NADPH; cited from earlier work
YqhD [6] = biological target: T2, YqhD (Escherichia coli, UniProt Q46856); experiment: Kinetic analysis of purified His-tagged YqhD; conditions: read-out: apparent Km for NADPH; purified enzyme, with furfural
T2 sequence (Q46856 1-387): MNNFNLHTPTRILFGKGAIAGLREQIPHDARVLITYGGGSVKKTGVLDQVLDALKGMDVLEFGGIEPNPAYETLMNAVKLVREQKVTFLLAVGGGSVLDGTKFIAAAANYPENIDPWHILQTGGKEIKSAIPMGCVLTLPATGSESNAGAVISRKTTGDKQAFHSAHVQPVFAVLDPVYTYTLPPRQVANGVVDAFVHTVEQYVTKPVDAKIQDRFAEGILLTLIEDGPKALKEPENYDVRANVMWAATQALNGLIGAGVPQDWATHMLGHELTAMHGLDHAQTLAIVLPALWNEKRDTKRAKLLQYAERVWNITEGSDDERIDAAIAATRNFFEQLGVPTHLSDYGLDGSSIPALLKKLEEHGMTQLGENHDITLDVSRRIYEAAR
Procedure: (§9) Cells were grown with IPTG to approximately 1.3 g dcw liter^−1, washed with 100 mM phosphate buffer, and lysed using MP Fast Prep-24 (MP Biomedical, Solon Ohio) and Lysing Matrix B. Crude extracts were passed through a 0.22 μm PVDF filter and further purified using a 1 mL HiTrap nickel column. Purified enzymes were dialyzed in 100 mM phosphate buffer using a Thermo Slide-A-Lyser and quantified using a Thermo BCA Protein Assay Kit. […] Apparent Kcat and apparent Km values were determined for both purified enzymes using NADPH and furfural.

YqhD [7] = biological target: T2, YqhD; set-up: For-[…]; His-tag (N); made in house; host or cells: E. coli BL21 (DE3); conditions: Miller et al. 2009b; read-out: apparent Km for NADPH; cited from earlier work
yqhD promoter [8] = experiment: Luciferase reporter activity from the yqhD promoter in LY180; format: cell-based, Escherichia coli
Procedure: (§2) Cultures of E. coli carrying appropriate reporter plasmids were grown in AM1-5% xylose to OD 0.2-0.4. After addition of furfural, cells were pelleted, resuspended in Qiagen Qproteome bacterial lysis buffer, and stored at −80° C. The lysates were thawed at 37° C. for 2 minutes, and transferred to a white 96-well plate. An equal volume (50 uL) of PerkinElmer BriteLite reagent was added to each well, and the luminescence measured in a Promega Glomax 96-well luminometer.
(§3) Plasmid pLOI4900 was constructed by transferring the firefly luciferase gene into pBAD24 (Guzman et al. 1995 J. Bacteriol. 177: 4121-4130), and then replacing the araC gene and pBAD promoter regions with a 150-bp region upstream from the yqhD gene in LY180. This putative yqhD promoter region was PCR amplified using primers PCT6 and PCT7 (Table 2).
(§4) Cultures of E. coli carrying appropriate reporter plasmids were grown in AM1-50 g liter^−1 xylose to OD 0.4. After sampling the cultures, furfural was added, and incubation continued for 5, 15 or 30 min before sampling again. Untreated and furfural-treated cells were pelleted, resuspended in Qiagen Qproteome bacterial lysis buffer, and stored at −80° C. The lysates were thawed at 37° C. for 2 minutes, and transferred to a 96-well plate (white). An equal volume (50 μL) of PerkinElmer BriteLite reagent was added to each well. Luminescence was measured using a Promega Glomax 96-well luminometer.

yqhD promoter [9] = experiment: Luciferase reporter activity from the yqhD promoter in LY180ΔyqhC; format: cell-based, Escherichia coli; conditions: yqhC deletion strain with pLOI4900; furfural addition
Procedure: as §2, §3
as §4, with “An equal volume (50 μL) of PerkinElmer BriteLite reagent was added to each well.” left out

yqhD promoter [10] = experiment: Luciferase reporter activity from the yqhD promoter in EMFR9; format: cell-based, Escherichia coli; conditions: EMFR9 with yqhD promoter reporter plasmid; furfural addition
Procedure: as §2, §4

yqhD promoter [11] = experiment: Luciferase reporter activity from the yqhD promoter in EMFR17; format: cell-based, Escherichia coli; conditions: EMFR17 with pPyqhD-luc; furfural addition
Procedure: as §2

LY180 [12] = experiment: Furfural reduction in vivo during fermentation; format: cell-based, Escherichia coli; conditions: furfural 0.5 g liter^−1
Procedure: (§5) Cultures grown to a cell density of […] in fleakers containing 350 mL AM1-10% xylose medium were sampled immediately before and 15, 30, and 60 minutes after addition of furfural to 0.5 g/L. The residual furfural concentration in the culture was determined after removal of bacterial cells by centrifugation. A spectrophotometric method was used, as described previously.
(§6) Cultures were grown to a cell density of 0.66 g dcw liter^−1 in fleakers containing 350 mL AM1-100 g liter^−1 xylose medium and sampled immediately before and 15, 30, and 60 minutes after addition of furfural (to 0.5 g liter^−1) as previously described (Miller et al. 2009 Appl. Environ. Microbiol. 75:4315-4323). Residual furfural was measured in the culture broth after centrifugation using a spectrophotometric method (Martinez et al. 2000 Biotechnol. Prog. 16: 637-641).

LY180ΔyqhC = experiment: Furfural reduction in vivo during fermentation; format: cell-based, Escherichia coli; conditions: furfural 0.5 g liter^−1
Procedure: as §5, §6

EMFR9 [13] = experiment: Furfural resistance and metabolism during pH-controlled fermentation; format: cell-based, Escherichia coli
Procedure: (§7) Furfural resistance was compared in small fermenters (37° C., 150 rpm, pH 6.5, 350-ml working volume) using AM1 medium (Martinez et al. 2007 Biotechnol. Lett. 29:397-404) containing 100 g liter^−1 xylose. Seed cultures were inoculated to approximately 33 mg dcw liter^−1. Samples were removed periodically to measure cell mass, ethanol, and furfural.

LY180 [14] = experiment: as above; format: cell-based, Escherichia coli
Procedure: as §7

[15] = test system: yqhC, yqhD and dkgA transcripts in LY180; experiment: Microarray analysis of transcripts after furfural addition; format: cell-based, Escherichia coli; conditions: 15 min after 0.5 g liter^−1 furfural
Procedure: For each strain, 4 replicate 350 ml cultures were grown to OD=[…] (0.66 g dcw liter^−1) and sampled. Furfural (0.5 g liter^−1) was added and samples were removed after 15 minutes of incubation. Culture samples were cooled in a dry ice/ethanol bath. Cells were pelleted at 4° C., resuspended in RNA Later (Qiagen), and stored at −80° C. Cell pellets from the 4 fermentors were pooled and used for RNA isolation (Qiagen RNeasy Mini Kit). RNA was treated with DNase, re-purified, and assessed for quality using an Agilent Bioanalyzer. RNA samples were submitted to Nimblegen for conversion to cDNA, labeling with Cy3, and hybridization to the E. coli K12 TI8333 microarray chip. This chip contains 385,000 60-mer probes derived from E. coli K12 strain MG1655, and has 5 replicates of each probe with an average of 18 probes per gene. Normalized expression data from Nimblegen was imported into ArrayStar (DNA Star) for analysis.

EMFR9 [16] = experiment: Effect of 5-HMF on anaerobic growth and fermentation; format: cell-based, Escherichia coli
Procedure: (§8) For fermentation experiments, seed cultures of LY180 and EMFR9 were grown overnight in small fermentors (37° C., 200 rpm) containing 350 ml of AM1 medium. Broth was maintained at pH 6.5 by the automatic addition of 2 N KOH. Upon reaching mid-log phase, experimental fermenters were inoculated to an initial cell density of 0.1 OD550 nm. (33 mg dry cell weight l^−1). Cell mass (OD550 nm) and furan levels were monitored at 12-h intervals as described previously (Martinez et al. 2000b Biotechnol Prog 16: 637-641).

LY180 [17] = experiment: as above; format: cell-based, Escherichia coli; conditions: 1.0 g l^−1 5-HMF; 100 g l^−1 xylose
Procedure: as §8

[18] = substrate: O=Cc1ccco1; experiment: cells, lysate or membranes named; conditions: other: purified enzyme, NADPH-dependent reduction
Procedure: as §9

[19] = mineral salts media with 50 g liter^−1 xylose, 48 h
[20] = xylose-mineral salts medium with yeast extract (1.0 g liter^−1)

T1 sequence (Q46857 whole entry): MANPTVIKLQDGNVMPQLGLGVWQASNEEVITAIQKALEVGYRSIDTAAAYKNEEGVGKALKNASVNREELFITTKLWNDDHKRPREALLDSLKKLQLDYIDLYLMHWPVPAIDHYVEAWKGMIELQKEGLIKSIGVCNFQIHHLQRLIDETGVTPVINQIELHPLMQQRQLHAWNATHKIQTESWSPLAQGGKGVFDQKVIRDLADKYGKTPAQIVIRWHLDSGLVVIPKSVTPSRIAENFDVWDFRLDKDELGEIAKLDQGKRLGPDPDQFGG

## OCc1ccco1 [furfuryl alcohol]
EMFR9 [1]
  MIC: 15000 µg/mL (≈ 153 mM)
LY180 [2]
  MIC: 15000 µg/mL (≈ 153 mM)

## N[C@@H](CS)C(=O)O [cysteine, L-cysteine]
LY180 [3]; 100 μM cysteine with 1 g l^−1 5-HMF
  restoration of growth by supplement: completely restored
LY180 [3]; 100 μM or 1000 μM cysteine with 2.5 g l^−1 5-HMF
  restoration of growth by supplement: not restored
LY180 [3]; cysteine supplements
  effect of supplement on the MIC for 5-HMF: did not increase the MIC

## NADPH
DkgA [4]
  Km: 23 µM
DkgA [5]
  Km: 23 µM
YqhD [6]
  Km: 8 µM
YqhD [7]
  Km: 8 µM

## COc1cc(C=O)cc(OC)c1O [syringaldehyde]
EMFR9 [1]
  MIC: 2000 µg/mL (≈ 11 mM)
LY180 [2]
  MIC: 2000 µg/mL (≈ 11 mM)

## O=Cc1ccco1 [furfural]
EMFR9 [1]; [19]
  minimal inhibitory concentration (MIC) of furfural: ~2000 µg/mL
EMFR9 [1]; xylose replaced with glucose
  furfural MIC: 2500 µg/mL
EMFR9 [1]; [20]
  furfural MIC: 2500 µg/mL
LY180 [2]; [19]
  minimal inhibitory concentration (MIC) of furfural: approximately 1.0 g liter^−1
LY180 [2]; xylose replaced with glucose
  furfural MIC: 1500 µg/mL
LY180 [2]; [20]
  furfural MIC: 2000 µg/mL
yqhD promoter [8]; LY180(pLOI4900), furfural 1 mM, 5 mM and 10 mM, evident within 5 min
  effect on luciferase activity: dose-dependent increase in luciferase activity
yqhD promoter [8]; LY180 carrying pPyqhD-luc, 15 minutes after addition of furfural
  effect on luciferase activity: activity was increased
yqhD promoter [9]
  effect on luciferase activity: no furfural-dependent response was observed
yqhD promoter [10]
  effect on luciferase expression: luciferase expression was not increased; also recorded: did not increase luciferase activity
yqhD promoter [11]
  effect on luciferase expression: luciferase expression was not increased
LY180 [12]
  in vivo rate of furfural reduction: 0.042±0.001 μmol min^−1 mg dcw^−1
LY180ΔyqhC
  in vivo rate of furfural reduction: 0.025±0.005 μmol min^−1 mg dcw^−1
EMFR9 [13]; 0.4 g liter^−1 furfural
  time to complete reduction of furfural: 12 h
EMFR9 [13]; 1.0 g liter^−1 furfural
  time to complete reduction of furfural: 18 h
EMFR9 [13]; furfural 0.4 g liter^−1 or 1.0 g liter^−1
  effect on growth and fermentation: virtually unaffected
LY180 [14]; 0.4 g liter^−1 furfural, 100 g liter^−1 xylose
  effect on growth and ethanol production: initial lag in growth and ethanol production
LY180 [14]; 1.0 liter^−1 furfural, 72-h incubation
  effect on growth and ethanol production: strongly inhibited
[15]
  up-regulation of yqhC, yqhD and dkgA transcripts: > 6 fold

## O=Cc1ccc(CO)o1 [5-HMF, 5-hydroxymethyl furfural]
EMFR9 [16]; 1.0 g l^−1 5-HMF
  effect on cell yield or ethanol yield: no detrimental effect
EMFR9 [16]; 2.5 g 5-HMF l^−1
  effect on ethanol production and growth: slowed
  time to completion of ethanol production and growth: 96 h
LY180 [17]
  effect on growth: completely inhibited
LY180 [3]; 1 g l^−1 5-HMF, tube cultures, 24 h
  effect on growth: partially inhibited

## CC(=O)C=O [Methylglyoxal]
yqhD promoter [8]; LY180(pLOI4900), 0.1 mM
  effect on luciferase activity: increase luciferase activity

B1: YqhD (Escherichia coli K-12) (protein)
chain: T2 sequence (Q46856 1-387)
[18]
  Km: 9000 µM
